Measured values published in patent publication US20080027131A1, “USE OF BENZO-FUSED HETEROCYCLE SULFAMIDE DERIVATIVES FOR THE TREATMENT OF OBESITY” (priority 2005, published 2008).

Legend:
[1] = tested on: AKR/J mice; assay: Obesity In Vivo Assays in diet-induced obese AKR/J mice (Example 14, first study and second dose response study); conditions: for Brown Adipose Tissue / Epididymal fat / Muscle / Retroperitoneal fat / Intake of high fat diet (g) Day 0-3 / Intake of high fat diet (g) Day 4-7 / Weight loss (g) Day 4 / Weight loss (g) Day 8 / Weight loss (g) Day 10 / Total intake of high fat diet (g) Day 1-10 / Weight loss (g) Day 7: mean ± SE; for Ratio (fat/muscle): total weights of inguinal fat and retroperitoneal fat/muscle weight
Source text: Compound #8 was suspended in 0.5% Methocel using a hand held homogenizer to reduce the particle size and a magnetic stir bar and stir plate to keep the particles homogeneously suspended throughout the dosing period. 0.5% Hydroxypropyl Methylcellulose (Methocel) used as vehicle/control.
Male AKR/J mice weighing between 35 to 46 grams were used for weight loss studies. AKR/J mice are susceptible to diet-induced obesity. Male AKR/J mice (average body weight of about 20 grams) at 4 to 5 weeks of age (obtained from Jackson Laboratories, Bar Harbor, Me.) were group housed, five per cage, in a shoebox cage at 21° C. with a 12 h light dark cycle. All of the mice were quarantined for a period of one week before transfer to the animal procedure room. The mice were fed a high fat diet for 8 weeks to induce obesity. The composition of the diet by energy was 45% energy as fat, 20% as protein, and 35% as carbohydrate (obtained from Research Diets, D12451, New Brunswick, N.J.). As a non-obese control, an additional group of mice that were age- and weight-matched was fed with a low fat diet (obtained from Research Diets, D12450B, New Brunswick, N.J.). Only mice that developed obesity, defined as a body weight between 35 and 46 grams, were selected for the weight loss studies. Animals were separated and single housed at least three days prior to the drug treatments to allow acclimation to the new surroundings.
The assay comprised two separate studies: In the first study, 10 mice were given vehicle control of 0.5% Methocel; 10 mice were treated with 300 mg/kg Compound #8 in vehicle; and 10 mice were dosed as positive control with 10 mg/kg sibutramine (a weight loss agent) in vehicle. In the second study, 48 mice were allocated into 4 treatment groups of 12 mice each. The four groups were then treated with 0.5% Methocel (vehicle), 10 mg/kg Compound #8, 30 mg/kg Compound #8, and 100 mg/kg Compound #8 in vehicle, respectively.
The mice were orally gavaged once daily (at 1500-1700 hour) with vehicle control (0.5% methocel, pH7.4) or vehicle containing Compound #8 for 10 days. The dosing volume was 5 mL/kg body weight (0.2 mL for 40 gram mice). Body weight and food intake of mice were monitored periodically throughout the studies. On Day 11, the mice were fasted for 4 hr during light cycle (food was removed 0600-1000 hour). A necropsy was done 18 hours after last dosing. The mice were anaesthetized with sodium pentobarbital (1 ml/kg, intraperitoneal [i.p.] injection, SleepAway, Fort Dodge, Iowa) and blood was drawn via cardiac puncture using an 1 mL syringe and collected into heparinized tubes. […] Plasma samples were obtained by centrifuging whole blood at 2000˜3000 g for 10˜20 minutes at 4° C. and stored at −20° C. for further measurement of insulin, HDL, LDL, and total cholesterol and triglyceride.
Blood glucose levels were measured with a glucometer (OneTouch UltraSmart, Lifescan, Milpitas, Calif.) after collecting two microliters of blood through tail puncture. Plasma insulin concentrations were measured by using rat/mouse insulin enzyme-linked immunosorbent assay (ELISA) kit (EZRMI-13K, LINCO Research, St. Charles, Mo.). Blood samples were diluted 1:4 in charcoal stripped mouse serum that was included in the ELISA kit. The rest of the procedure followed the manufacturers instruction. The total fluorescence was detected using an Orion 1 Microplate Luminometer (Berthold Detection Systems, Pforzheim, Germany). Plasma total cholesterol, high density lipoprotein (HDL), low density lipoprotein (LDL) and triglyceride concentrations were measured by using a Bayer ADVIA 1650 blood chemistry analyzer (Bayer HealthCare LLC, Diagnostic Division, Tarrytown, N.Y.). […]

[2] = tested on: AKR/J Obese Mice; assay: AKR/J Obese Mice In Vivo Assay (Example 13)
Protocol: AKR/J mice are known in the art to be susceptible to diet-induced obesity. (Rossmeisl M, Rim J S, Koza R A, Kozak L P. Diabetes. 2003 August; 52(8):1958-66.)
Male AKR/J mice (˜20 gram) at 4-5 weeks of age (Jackson Laboratories, Bar Harbor, Me.) were housed individually in a shoe-box cage at 21° C. with a 12-h light-dark cycle. The mice were fed with a high fat diet for 8 weeks to induce obesity. The composition of the diet by energy was 45% energy as fat, 20% as protein, and 35% as carbohydrate (Research Diets, D12451, New Brunswick, N.J.).
Obese mice with body weights between 35 and 46 grams were selected for the studies. Mice were randomized according to body weight into treatment groups at 13 weeks of age. The mice were orally gavaged once daily (0.2 ml at 1500-1700 hour) with vehicle control (0.5% methylcellulose, pH7.4) or vehicle containing Compound #8 (300 mg/kg). The body weights and food intake of the mice were monitored every few days. On day 11, the mice were anaesthetized with sodium pentobarbital (1 ml/kg, i.p, Sleepaway, Fort Dodge, Iowa). White adipose tissue (WAT) (retroperitoneal fat) and skeletal muscle (gastrocnemius and soleus muscle) were dissected and weighed.
Data shown below are expressed as mean and standard error calculated using 9-10 mice per treatment group. The 2 tailed Student's t-Tests were used for statistic analysis. All animal studies complied with the guideline of the Institutional Animal Care and Use Committee.

[3] = first study, 10 mg/kg, after 10 days of dosing
[4] = first study, positive control 10 mg/kg
[5] = first study, 300 mg/kg oral gavage once daily
[6] = first study, 300 mg/kg, after 10 days of dosing
[7] = second study, 10 mg/kg oral once daily
[8] = second study, 30 mg/kg oral once daily
[9] = second study, 100 mg/kg oral once daily
[10] = 300 mg/kg oral, 10-day treatment

Compound: CC(C)CC(N(C)C)C1(c2ccc(Cl)cc2)CCC1 (stereo not shown) [Sibutramine, sibutramine, reference compound]
- food intake from day 0 to Day 3 (in words) ([1]; first study, 10 mg/kg): reduction of food intake
- weight after 3 days treatment (in words) ([1]; first study, 10 mg/kg): lost weight
- weight at the end of the study compared to control mice (in words) ([1]; first study, 10 mg/kg): no difference in weight
- Brown Adipose Tissue [1, 3]: 0.14 ± 0.01 g
- Epididymal fat [1, 3]: 1.76 ± 0.11 g
- Muscle [1, 3]: 0.31 ± 0.01 g
- Retroperitoneal fat [1, 3]: 0.61 ± 0.07 g
- Ratio (fat/muscle) ([1]; first study, 10 mg/kg): 7.67 ± 0.59
- Intake of high fat diet (g) Day 0-3 [1, 4]: 6.5 ± 0.3 g
- Intake of high fat diet (g) Day 4-7 [1, 4]: 14.4 ± 0.7 g
- Weight loss (g) Day 4 [1, 4]: -2.0 ± 0.2 g
- Weight loss (g) Day 8 [1, 4]: -1.2 ± 0.4 g
- Weight loss (g) Day 10 [1, 4]: -1.2 ± 0.5 g

Compound: NS(=O)(=O)NC[C@H]1COc2cc(Cl)ccc2O1 [Compound #8, (2S)-(−)-N-(6-Chloro-2,3-dihydro-benzo[1,4]dioxin-2-ylmethyl)-sulfamide]
- Intake of high fat diet (g) Day 0-3 [1, 5]: 10.0 ± 0.4 g
- Intake of high fat diet (g) Day 4-7 [1, 5]: 10.6 ± 0.4 g
- Weight loss (g) Day 4 [1, 5]: -0.3 ± 0.3 g
- Weight loss (g) Day 8 [1, 5]: -2.5 ± 0.3 g
- Weight loss (g) Day 10 [1, 5]: -3.3 ± 0.3 g
- weight loss compared with vehicle treated mice (in words) [1, 6]: significant weight loss
- white adipose tissue weight compared with vehicle treatment (in words) [1, 6]: reduced white adipose tissue weight
- Brown Adipose Tissue [1, 6]: 0.22 ± 0.09 g
- Epididymal fat [1, 6]: 1.73 ± 0.10 g
- Muscle [1, 6]: 0.30 ± 0.01 g
- Retroperitoneal fat [1, 6]: 0.47 ± 0.04 g
- food intake compared to vehicle (in words) ([1]; first study, 300 mg/kg, three days after treatment): Significant suppression of food intake
- Ratio (fat/muscle) ([1]; first study, 300 mg/kg): 7.42 ± 0.54
- Total stomach content, measured at the end of the study ([1]; first study, 300 mg/kg, vehicle 0.16±0.02 g, p<0.05): 0.27 ± 0.05 g
- weight loss or food intake suppression (in words) ([1]; second dose response study, 10, 30, and 100 mg/kg): no significant (P>0.05) weight loss or food intake suppression
- Total intake of high fat diet (g) Day 1-10 [1, 7]: 28 ± 0.5 g
- Weight loss (g) Day 4 [1, 7]: 0.1 ± 0.1 g
- Weight loss (g) Day 7 [1, 7]: 0.2 ± 0.2 g
- Weight loss (g) Day 10 [1, 7]: 0.3 ± 0.3 g
- Total intake of high fat diet (g) Day 1-10 [1, 8]: 28 ± 0.5 g
- Weight loss (g) Day 4 [1, 8]: 0.1 ± 0.1 g
- Weight loss (g) Day 7 [1, 8]: 0.0 ± 0.2 g
- Weight loss (g) Day 10 [1, 8]: -0.4 ± 0.2 g
- Total intake of high fat diet (g) Day 1-10 [1, 9]: 28 ± 0.6 g
- Weight loss (g) Day 4 [1, 9]: 0.2 ± 0.1 g
- Weight loss (g) Day 7 [1, 9]: 0.2 ± 0.3 g
- Weight loss (g) Day 10 [1, 9]: 0.1 ± 0.2 g
- Weight Loss ([2]; 300 mg/kg oral gavage once daily, 10-day treatment, mean ± standard error, 9-10 mice): -3.3 ± 0.34 g
- Food Intake (g) Day 4-10 ([2]; 300 mg/kg oral gavage once daily, Day 4-10, mean ± standard error): 16.2 ± 0.68 g
- Retroperitoneal Fat Weight ([2]; 300 mg/kg oral gavage once daily, dissected day 11, mean ± standard error): 0.47 ± 0.04 g
- Skeletal Muscle Weight ([2]; 300 mg/kg oral gavage once daily, gastrocnemius and soleus, day 11, mean ± standard error): 0.30 ± 0.01 g
- changes in skeletal muscle mass (in words) [2, 10]: no significant changes
- decrease of fat to lean mass ratio (white adipose tissue/skeletal muscle) compared to vehicle treated mice [2, 10]: 16.8%
- reduction of retroperitoneal fat relative to vehicle treated mice [2, 10]: 26.6%
- fat to lean mass ratio (white adipose tissue/skeletal muscle) ([2]; 300 mg/kg oral, 10-day treatment, vehicle 8.9±0.4, p<0.05): 7.4±0.5
- weight loss compared to vehicle treated mice (in words) ([2]; 300 mg/kg oral, after 10-day treatment): greater weight loss
- food intake relative to control animals (in words) ([2]; 300 mg/kg oral, day 4 to day 10): reduction of food intake
- gastric emptying ([2]; 300 mg/kg oral, p<0.05): delay gastric emptying at a statistically significant level

Compound: NS(=O)(=O)NCC1CCc2ccccc2O1 (stereo not shown)
- melting point: 100 to 101 °C
